Results as given in patent publication US20120122765A1, “COMPOUNDS AND RELATED METHODS FOR MANIPULATING PARP-1-DEPENDENT CELL DEATH” (priority 2010, published 2012).
Read-outs that look alike come from different tables or passages of the source. Each block holds one molecule with its values, some of them ahead of it.

Columns and labels:
PAR [1] = test: dot-blot assay of AIF peptides with 32P-labeled PAR; type: binding; settings: for binding to 32P-labeled automodified PARP-1 or 32P-labeled purified PAR: peptides spanning only amino acids 567-592; for binding to PAR: peptides, 100 nM purified 32P-labeled PAR
Method: To determine whether these putative binding sites are in fact responsible for AIF binding to PAR, Applicants performed a dot-blot assay with peptides corresponding to these motifs in the presence of 100 nM purified ^32P-labeled PAR. FIG. 5 comprises black and white photos of representative dot-blot assay for full length WT-AIF, three AIF peptides formed from identified portions of AIFm, histone H3, and BSA in presence of 100 nM purified ^32P-labeled PAR.
(§1) Applicants thereafter repeated the experiments using both wild type and mutant AIFm peptides spanning only amino acids 567-592 instead of full length AIFm and obtained results consistent with those using full-length AIF. […] The double amino acid mutant Dm (corresponding to only amino acids 567-592 of AIF-Dm so as to consist of SEQ. ID NO. 16) bound PAR. […] Thus, it is preferred in embodiments of the invention when conducting genetic manipulations to convert at least three target basic amino acids in the PBM to hydrophobic amino acids.

PAR [2] = test: nitrocellulose saturation binding experiments
Text: as §1
The PAR polymer binding properties of the mutant Pbm-AIF was then measured using full-length recombinant His-WT-AIF and His tagged Pbm-AIF (“His-Pbm-AIF”) via a series of nitrocellulose saturation binding experiments. Similar experiments were also conducted for the shorter peptides Dm and Tm in comparison to WT. FIG. 10B through FIG. 10D comprise charts reporting data from these various experiments. With regard to the shorter peptides, Applicants determined that the binding affinity constant (“Kd”) and maximum binding capacity (“Bmax”) of these AIF mimetic peptides and the results are reported in the chart of FIG. 10B. […] FIG. 10D comprises a Scatchard plot (95% confidence interval) of the results.

DNA = DNA retardation assay; type: binding; settings: DNA (200 ng), 30 minutes
Method: AIF binding-mediated DNA mobility retardation was performed as described by H. Cande et al. (Nat Struct Biol, 2002). Recombinant His-tagged AIF (10 μg or 25 μg) was incubated with 1 kb DNA molecular weight marker (obtained from Fermentas) for 30 minutes at room temperature and loaded on 2.5% agarose gel prestained with ethidium bromide (1 μg/ml). Mobility shift was visualized under the Alpha Innotech UV illuminator.
Further, a DNA retardation assay of His-WT-AIF and His-Pbm-AIF was conducted by incubating both with DNA (200 ng) for 30 minutes, using BSA as a negative control.

[3] = PAR binding, saturation binding
[4] = PAR binding, saturation binding, ligand binding program of Sigma plot, read-out: Kd

Molecule: amino acids 567-592 of AIF-Dm, SEQ. ID NO. 16 LRDKVVVGIVLWNVFNRMPIAAAIIK (mouse) [Dm peptide]
binding to 32P-labeled automodified PARP-1 or 32P-labeled purified PAR (PAR [1]): bound PAR
Bmax (PAR [2]; [3]): 3.97 pmol
Kd (PAR [2]; [4]): 3300 nM

Molecule: amino acids 567-592 of AIF-Tm, SEQ. ID NO. 17 LRDKVVVGIVLWNVFNRMPIAAAIIA (mouse) [Tm peptide]
binding to 32P-labeled automodified PARP-1 or 32P-labeled purified PAR (PAR [1]): failed to bind
Bmax (PAR [2]; [3]): 1.77 pmol
Kd (PAR [2]; [4]): 107000 nM
PAR binding in saturation binding experiments (PAR [2]; result in words): clearly reduced PAR binding

Molecule: peptide composed of AIFm amino acids 222-244: peptide of mouse AIF amino acids 222-244, SEQ. ID NO. 1 (GGVAVLTGKKVVHLDVRGNMVKL; mouse)
binding to PAR (PAR [1]): bound less well

The next lines start with the values.

binding to PAR (PAR [1]): failed to bind PAR appreciably
Molecule: peptide composed of AIFm amino acids 441-463: peptide of mouse AIF amino acids 441-463, SEQ. ID NO. 5 (FYDIKLGRRRVEHHDHAVVSGRL; mouse)

Bmax (PAR [2]; [3]): 200.83 pmol
Kd (PAR [2]; [4]): 100 nM
Bmax (PAR [2]; specific binding (His-Pbm-AIF values subtracted), Scatchard analysis): 116.208 pmol
Kd (PAR [2]; specific binding (His-Pbm-AIF values subtracted), Scatchard analysis, read-out: calculated Kd): 66.3 nM
DNA-binding properties (DNA): comparable
B1: His-WT-AIF: full-length recombinant His-tagged wild type mouse AIF (protein)
chain: MFRCGGLAGAFKQKLVPLVRTVYVQRPKQRNRLPGNLFQQWRVPLELQMARQMASSGSSGGKMDNSVLVLIVGLSTIGAGAYAYKTIKEDQKRYNERVMGLGLSPEEKQRRAIASATEGGSVPQIRAPSHVPFLLIGGGTAAFAAARSIRARDPGARVLIVSEDPELPYMRPPLSKELWFSDDPNVTKTLQFRQWNGKERSIYFQPPSFYVSAQDLPNIENGGVAVLTGKKVVHLDVRGNMVKLNDGSQITFEKCLIATGGTPRSLSAIDRAGAEVKSRTTLFRKIGDFRALEKISREVKSITVIGGGFLGSELACALGRKSQASGIEVIQLFPEKGNMGKILPQYLSNWTMEKVKREGVKVMPNAIVQSVGVSGGRLLIKLKDGRKVETDHIVTAVGLEPNVELAKTGGLEIDSDFGGFRVNAELQARSNIWVAGDAACFYDIKLGRRRVEHHDHAVVSGRLAGENMTGAAKPYWHQSMFWSDLGPDVGYEAIGLVDSSLPTVGVFAKATAQDNPKSATEQSGTGIRSESETESEASEITIPPSAPAVPQVPVEGEDYGKGVIFYLRDKVVVGIVLWNVFNRMPIARKIIKDGEQHEDLNEVAKLFNIHED
modifications: left off: small tags and cut ends
